According to US5674867A, “Indolocarbazole derivatives and therapeutic method for stimulating megakaicyocyte production” (Kyowa Hakko Kogyo Co., Ltd., priority 1992, dated 1997):

Test system: bone marrow cells (megakaryocyte colony formation)
Assay: Megakaryocyte colony formation-stimulating activity (ACHE-stained colonies, bone marrow cells with IL-3)
Format: cell-based, BALB/c mouse
Conditions: with IL-3 100 U/ml, 7 days
Protocol: An eight-weeks-old BALB/c mouse was killed. Its femurs and cervical vertebrae were taken out, and both end sections thereof were cut off. Bone marrow cells were collected from the pieces cut off from the femurs and cervical vertebrae using a syringe containing IMDM (430-2200EA prepared by Gibco Co.), and then blown into a test tube. The test tube was allowed to stand for 5 minutes, and the supernatant was collected with a pipet. To a reaction mixture comprising the bone marrow cells (50,000 cells), bovine serum albumin (2%: A4508 made by Sigma Co.), transferrin (600 μg/ml 652202 made by Boehringer Mannheim Co.), IL-3 (100 U/ml), cholesterol (16 μg/ml: 036-0641 made by Wako Co.) and agar (0.6%: 0142-02 made by Difco Laboratories) were separately added the test compounds at various concentrations, and 1 ml each of the mixtures was put into a 35-mm dish (Lux Co.), followed by incubation under the conditions of 37° C., 5% CO2 and a humidity of 95% or more for 7 days. Separately, IL-3 alone was added to the bone marrow cells to prepare a control, whereas a positive control was prepared by adding 200 U/ml IL-6 to the above-mentioned reaction mixture. After the incubation was completed, the agar was dried over a filter paper (1001-055 made by Whatman Co.) and then fixed with 2.5% glutaraldehyde, followed by acetylcholinesterase staining (ACHE staining).
The ACHE staining was carried out by the method described below.
ACHE staining: To each sample was added a solution comprising 0.67 mg/ml acetylthiocholine iodide, 2.94 mg/ml sodium citrate, 7.5 mg/ml copper (II) sulfate and 1.65 mg/ml potassium ferricyanide, and the mixture was allowed to stand at room temperature in the dark for 4-6 hours.
A group of 4 or more megakaryocytes which were stained reddish brown was regarded as a colony, and the number of colonies per dish was calculated using a microscope. The results are shown in Table 2 as relative values to the control.

CCCOc1ccc2c(c1)c1c3c(c4c5cc(OCCC)ccc5n5c4c1n2C1CC(O)(C(=O)OC)C5(C)O1)CNC3=O (stereo not shown) [Compound I-12]
Relative value (megakaryocyte colonies, control = 100) (0.1 nM): 133 | Relative value (megakaryocyte colonies, control = 100) (1 nM): 113 | Relative value (megakaryocyte colonies, control = 100) (10 nM): 122

CCCCCCN(C)C1CC2OC(C)(C1OC)n1c3ccccc3c3c4c(c5c6ccccc6n2c5c31)C(=O)NC4 (stereo not shown) [Compound I-27]
Relative value (megakaryocyte colonies, control = 100) (0.1 nM): 76 | Relative value (megakaryocyte colonies, control = 100) (1 nM): 109 | Relative value (megakaryocyte colonies, control = 100) (10 nM): 97

CNC1CC2OC(C)(C1OC)n1c3ccccc3c3c4c(c5c6ccccc6n2c5c31)C(=O)N(N)C4=O (stereo not shown) [Compound I-3]
Relative value (megakaryocyte colonies, control = 100) (0.01 nM): 98.8 | Relative value (megakaryocyte colonies, control = 100) (1 nM): 127

CNC1CC2OC(C)(C1OC)n1c3ccccc3c3c4c(c5c6cc(Br)ccc6n2c5c31)C(=O)NC4 (stereo not shown) [Compound I-29]
Relative value (megakaryocyte colonies, control = 100) (0.1 nM): 90 | Relative value (megakaryocyte colonies, control = 100) (1 nM): 113 | Relative value (megakaryocyte colonies, control = 100) (10 nM): 112

O=C1NCc2c1c1c3ccccc3[nH]c1c1[nH]c3ccccc3c21 [Compound I-16]
Relative value (megakaryocyte colonies, control = 100) (0.1 nM): 118 | Relative value (megakaryocyte colonies, control = 100) (1 nM): 88.3 | Relative value (megakaryocyte colonies, control = 100) (10 nM): 100

CCCCOC(=O)C1(O)CC2OC1(C)n1c3ccccc3c3c4c(c5c6ccccc6n2c5c31)C(=O)NC4=O (stereo not shown) [Compound I-43]
Relative value (megakaryocyte colonies, control = 100) (0.1 nM): 81 | Relative value (megakaryocyte colonies, control = 100) (1 nM): 118 | Relative value (megakaryocyte colonies, control = 100) (10 nM): 87

CNC1CC2OC(C)(C1OC)n1c3ccccc3c3c4c(c5c6ccccc6n2c5c31)C(=O)N(C)C4 (stereo not shown) [Compound I-22]
Relative value (megakaryocyte colonies, control = 100) (0.1 nM): 116 | Relative value (megakaryocyte colonies, control = 100) (1 nM, 10080 min, 0.001 µM): 120 | Relative value (megakaryocyte colonies, control = 100) (10 nM): 100

COC(=O)C1(OC(C)=O)CC2OC1(C)n1c3ccccc3c3c4c(c5c6cc(C(C)=O)ccc6n2c5c31)C(=O)N(C(C)=O)C4 (stereo not shown) [Compound I-37]
Relative value (megakaryocyte colonies, control = 100) (0.1 nM): 82 | Relative value (megakaryocyte colonies, control = 100) (1 nM): 124 | Relative value (megakaryocyte colonies, control = 100) (10 nM): 114

COC(=O)C1(O)CC2OC1(C)n1c3ccccc3c3c4c(c5c6cc(S(=O)(=O)N7CCN(C)CC7)ccc6n2c5c31)C(=O)NC4 (stereo not shown) [Compound I-11]
Relative value (megakaryocyte colonies, control = 100) (0.1 nM): 88.4 | Relative value (megakaryocyte colonies, control = 100) (1 nM): 95 | Relative value (megakaryocyte colonies, control = 100) (10 nM): 116

COC1C(N(C)C)CC2OC1(C)n1c3ccccc3c3c4c(c5c6ccccc6n2c5c31)C(=O)N(C)C4 (stereo not shown) [Compound I-49]
Relative value (megakaryocyte colonies, control = 100) (0.1 nM): 122 | Relative value (megakaryocyte colonies, control = 100) (1 nM): 128

COC(=O)C1(O)CC2OC1(C)n1c3ccccc3c3c4c(c5c6ccccc6n2c5c31)C(=O)N(Cc1ccccc1)C4=O (stereo not shown) [Compound I-13]
Relative value (megakaryocyte colonies, control = 100) (0.1 nM): 100 | Relative value (megakaryocyte colonies, control = 100) (1 nM): 113 | Relative value (megakaryocyte colonies, control = 100) (10 nM): 125

CC(C)OC(=O)C1(O)CC2OC1(C)n1c3ccccc3c3c4c(c5c6ccccc6n2c5c31)C(=O)NC4 (stereo not shown) [Compound I-45]
Relative value (megakaryocyte colonies, control = 100) (0.1 nM): 103 | Relative value (megakaryocyte colonies, control = 100) (1 nM): 143 | Relative value (megakaryocyte colonies, control = 100) (10 nM): 100

COC(=O)C1(OC(C)=O)CC2OC1(C)n1c3ccccc3c3c4c(c5c6ccccc6n2c5c31)C(=O)N(C(C)=O)C4 (stereo not shown) [Compound I-8]
Relative value (megakaryocyte colonies, control = 100) (0.01 nM): 95.6 | Relative value (megakaryocyte colonies, control = 100) (1 nM): 118 | Relative value (megakaryocyte colonies, control = 100) (100 nM): 89.6

COCOC1(C(=O)OC)CC2OC1(C)n1c3ccccc3c3c4c(c5c6ccccc6n2c5c31)C(=O)NC4 (stereo not shown) [Compound I-39]
Relative value (megakaryocyte colonies, control = 100) (0.1 nM): 123 | Relative value (megakaryocyte colonies, control = 100) (1 nM): 109 | Relative value (megakaryocyte colonies, control = 100) (10 nM): 92

CCCOC(=O)C1(O)CC2OC1(C)n1c3ccccc3c3c4c(c5c6ccccc6n2c5c31)C(=O)NC4 (stereo not shown) [Compound I-42]
Relative value (megakaryocyte colonies, control = 100) (0.1 nM): 91 | Relative value (megakaryocyte colonies, control = 100) (1 nM): 107 | Relative value (megakaryocyte colonies, control = 100) (10 nM): 122

CCCN1C(=O)c2c(c3c4ccccc4n4c3c3c2c2ccccc2n3C2CC(O)(C(=O)OC)C4(C)O2)C1=O (stereo not shown) [Compound I-44]
Relative value (megakaryocyte colonies, control = 100) (0.1 nM): 126 | Relative value (megakaryocyte colonies, control = 100) (1 nM): 70 | Relative value (megakaryocyte colonies, control = 100) (10 nM): 118

CCCN(C)C1CC2OC(C)(C1OC)n1c3ccccc3c3c4c(c5c6ccccc6n2c5c31)C(=O)N(C)C4 (stereo not shown) [Compound I-24]
Relative value (megakaryocyte colonies, control = 100) (0.1 nM): 88 | Relative value (megakaryocyte colonies, control = 100) (1 nM): 87 | Relative value (megakaryocyte colonies, control = 100) (10 nM): 109

CCSC1NC(=O)c2c1c1c3ccccc3n3c1c1c2c2ccccc2n1C1CC(O)(C(=O)OC)C3(C)O1 (stereo not shown) [Compound I-14]
Relative value (megakaryocyte colonies, control = 100) (0.1 nM): 118 | Relative value (megakaryocyte colonies, control = 100) (1 nM): 115 | Relative value (megakaryocyte colonies, control = 100) (10 nM): 116

COC(=O)C1(OC)CC2OC1(C)n1c3ccccc3c3c4c(c5c6ccccc6n2c5c31)C(=O)N(C)C4 (stereo not shown) [Compound I-7]
Relative value (megakaryocyte colonies, control = 100) (0.01 nM): 93 | Relative value (megakaryocyte colonies, control = 100) (1 nM): 101 | Relative value (megakaryocyte colonies, control = 100) (100 nM): 108

CNC1CC2OC(C)(C1OC)n1c3ccccc3c3c4c(c5c6ccccc6n2c5c31)C(=O)N(C)C4O (single isomer, unassigned) [Compound I-23a]
Relative value (megakaryocyte colonies, control = 100) (0.1 nM): 114

CNC1CC2OC(C)(C1OC)n1c3ccccc3c3c4c(c5c6cc(C=O)ccc6n2c5c31)C(=O)N(C)C4 (stereo not shown) [Compound I-50]
Relative value (megakaryocyte colonies, control = 100) (1 nM): 118 | Relative value (megakaryocyte colonies, control = 100) (10 nM): 128

IL-6: hematopoietic factor which stimulates the production of blood platelets; positive control
Relative value (megakaryocyte colonies, control = 100) (200 U/ml, positive control): 117

COC(=O)C1(O)CC2OC1(C)n1c3ccccc3c3c4c(c5c6ccccc6n2c5c31)C(=O)NC4O (stereo not shown) [Compound I-4]
Relative value (megakaryocyte colonies, control = 100) (0.01 nM): 94.3 | Relative value (megakaryocyte colonies, control = 100) (1 nM): 115

CNC1CC2OC(C)(C1OC)n1c3ccccc3c3c4c(c5c6ccccc6n2c5c31)C(=O)N(C)C4=O (stereo not shown) [Compound I-9]
Relative value (megakaryocyte colonies, control = 100) (0.1 nM): 135 | Relative value (megakaryocyte colonies, control = 100) (1 nM): 117 | Relative value (megakaryocyte colonies, control = 100) (10 nM): 92.2

CNC1CC2OC(C)(C1OC)n1c3ccccc3c3c4c(c5c6ccccc6n2c5c31)C(=O)N(C)C4 (stereo not shown) [Compound I-2]
Relative value (megakaryocyte colonies, control = 100) (0.01 nM): 125 | Relative value (megakaryocyte colonies, control = 100) (1 nM, 10080 min, 0.001 µM): 168

CCCCCCN1Cc2c(c3c4ccccc4n4c3c3c2c2ccccc2n3C2(C)OC4CC(NC)C2OC)C1=O (stereo not shown) [Compound I-20]
Relative value (megakaryocyte colonies, control = 100) (0.1 nM): 107 | Relative value (megakaryocyte colonies, control = 100) (1 nM): 131 | Relative value (megakaryocyte colonies, control = 100) (10 nM): 144

COC(=O)C1(OC)CC2OC1(C)n1c3ccccc3c3c4c(c5c6ccccc6n2c5c31)C(=O)NC4 (stereo not shown) [Compound I-36]
Relative value (megakaryocyte colonies, control = 100) (0.1 nM): 130 | Relative value (megakaryocyte colonies, control = 100) (1 nM): 172 | Relative value (megakaryocyte colonies, control = 100) (10 nM): 173

CCCOc1ccc2c(c1)c1c3c(c4c5ccccc5n5c4c1n2C1CC(OC)(C(=O)OC)C5(C)O1)CN(C)C3=O (stereo not shown) [Compound I-38]
Relative value (megakaryocyte colonies, control = 100) (0.1 nM): 112 | Relative value (megakaryocyte colonies, control = 100) (1 nM): 111 | Relative value (megakaryocyte colonies, control = 100) (10 nM): 136

CNC1CC2OC(C)(C1OC)n1c3ccccc3c3c4c(c5c6ccccc6n2c5c31)C(=O)N(Cc1ccccc1)C4 (stereo not shown) [Compound I-21]
Relative value (megakaryocyte colonies, control = 100) (0.1 nM): 95 | Relative value (megakaryocyte colonies, control = 100) (1 nM): 105 | Relative value (megakaryocyte colonies, control = 100) (10 nM): 97

CCCOc1ccc2c(c1)c1c3c(c4c5ccccc5n5c4c1n2C1CC(O)(C(=O)OC)C5(C)O1)CNC3=O (stereo not shown) [Compound I-6]
Relative value (megakaryocyte colonies, control = 100) (0.01 nM): 112 | Relative value (megakaryocyte colonies, control = 100) (1 nM): 132 | Relative value (megakaryocyte colonies, control = 100) (100 nM): 117

CCCCCCOC(=O)C1(O)CC2OC1(C)n1c3ccccc3c3c4c(c5c6ccccc6n2c5c31)C(=O)NC4 (stereo not shown) [Compound I-5]
Relative value (megakaryocyte colonies, control = 100) (0.01 nM): 112 | Relative value (megakaryocyte colonies, control = 100) (1 nM): 104 | Relative value (megakaryocyte colonies, control = 100) (100 nM): 103

CCCN1Cc2c(c3c4ccccc4n4c3c3c2c2ccccc2n3C2(C)OC4CC(NC)C2OC)C1=O (stereo not shown) [Compound I-19]
Relative value (megakaryocyte colonies, control = 100) (0.1 nM): 118 | Relative value (megakaryocyte colonies, control = 100) (1 nM): 94 | Relative value (megakaryocyte colonies, control = 100) (10 nM): 156

CC12OC(CC1O)n1c3ccccc3c3c4c(c5c6ccccc6n2c5c31)CNC4=O (stereo not shown) [Compound I-46]
Relative value (megakaryocyte colonies, control = 100) (0.1 nM): 97 | Relative value (megakaryocyte colonies, control = 100) (1 nM): 131 | Relative value (megakaryocyte colonies, control = 100) (10 nM): 112

CNC1CC2OC(C)(C1OC)n1c3ccccc3c3c4c(c5c6ccccc6n2c5c31)C(=O)N(C)C4O (single isomer, unassigned) [Compound I-23b]
Relative value (megakaryocyte colonies, control = 100) (0.1 nM): 114
